{
  "source": "paper PMC10499988",
  "about": "(Nature Communications, 2023)",
  "key": {"[1]": {"experiment": "Reactivity of macrocycles with thiol nucleophiles", "assay_type": "physicochemical", "settings": "several hours, basic pH", "excerpt": "6-10 Å and the PM F of the pocket 1 starts to deviate from the others, we performed hydrogen bond interaction searches with 3.5 Å cut off distance between a donor and an acceptor at intermediate regime from umbrella sampling simulations. These findings […]\nof the peptide to the pocket 1 binding site of albumin. This was supported by the fact that […]\nsimulation time (Supplementary Fig. 27). O verall, these findings provide im portant insights into the m echanism of binding betw een the peptide and album in, w hich could inform the design of future albumin-binding peptides with improved affinity and specificity. The concurrence of the docking results and the experimental binding data provides strong evidence that our simulations accurately predicted the binding for 14c.\nSupplementary Fig. 7. […] The OFS-SWCRC […]\npeptide was added with one equivalent of GSH in 60% acetonitrile in 50 mM Tris-HCl at pH 8.5.\nThe reaction was monitored by LC–MS.\nSupplementary Fig. 8. Stability of the PFS stapled peptides (A ) Results of the PFS-SW CRC mixed with 2-mercaptoethanol and analyzed by LC–MS after 1 hour and 3 weeks. The PFS-SW CRC macrocycle was combined with 1 equivalent of 2-mercaptoethanol in 60% acetonitrile and 50 mM Tris-HCl at pH 8.5. The mixture was monitored by LC–MS. […]\nspectrum of 1 mg of PFS- […] mixed with 1 mg of HSA over 19 days in PBS. The mixture was monitored by 19F NMR in PBS, 10% D2O"}, "[2]": {"experiment": "In vivo pharmacokinetic experiment, plasma LC-MS after tail vein injection", "protocol": "All the procedures and experiments involving animals were carried out using a protocol approved by the Health Sciences Laboratory Animal Services (HSLAS), University of Alberta. The protocol was approved as per the Canadian Council on Animal Care (CCAC) guidelines. Approved protocol # AUP00002467. All mice (Strain: C57BL/6J) were maintained in pathogen-free conditions at the University of Alberta breeding facility. Housed on ventilated caging (Tecniplast); Temperature: 21 +/− 2 degrees Celsius; Humidity: 30–70% rH; Light Cycle: 12 L:12D. […] Peptide mixtures of 100 µM were prepared in PBS. Mice were administered with 200 µL of the peptide mixture solution with tail veil injection. A series of 6 blood samples were collected at time points from 2 min up to 240 min (Fig. 6B: 2 min, 60 min; Fig. 6C–E: 2 min, 60 min, 180 min; Supplementary Fig. 32: 2 min, 5 min, 30 min, 60 min, 120 min, 240 min). Samples were collected in tubes that contained sodium citrate as an anticoagulant and then centrifuged at 5 min at 2000 × g to collect the blood plasma. 10 µL of plasma portion were transferred into a tube containing 40 µL of 8:2 acetonitrile/water to precipitate proteins. The samples were centrifuged at 17,000 × g for 10 min at 4 °C. Supernatants were then transferred to new tubes and subjected to analysis by LC-MS. […]\nassays. The fluorescent-labeled peptides w ere dissolved to 10 m M in D M SO and diluted to 20 µM in DM SO for use. Each well contained 19 µL of HSA in PBSwith the range of final […]\n1 µL of 20 µM of fluorescentlly labeled peptide was added to the wells to a final concentration of 1 µM . Each measuring point was made in duplicate. Before measuring, the plate was centrifuged 500×g for 5 min at RT, incubated for 10 m in, and shaken for 5 m in the dark. The m easurem ent w as perform ed in Cytation5 Cell Imaging Multi-Mode Reader from BioTek. The data were analyzed and processed in […]\n26. […]\nprepared with the identical buffer as the peptides to a final concentration of 40 µM . […] The data were evaluated using the MicroCalTM OriginTM Version 5.0. […]"}, "HSA [3]": {"target": "T1, HSA (Homo sapiens, UniProt P02768)", "set-up": "purchased Sigma-Aldrich A4327-1G", "settings": "cited from earlier work"}, "HSA [4]": {"target": "T1, HSA", "settings": "19F NMR competition"}, "[5]": {"target": "Serum albumin (Homo sapiens) (UniProt P02768)", "settings": "cited from earlier work"}, "[6]": {"settings": "C57BL/6J, mouse, plasma, iv, 200 uL of 100 uM peptide mixture"}},
  "note": "pKd: −log10 of the molar value. Like-named read-outs stand apart in the source and are kept apart here. Positions of bridges follow the written chain, without caps; N, C: chain ends. Residues, ends and D or L forms follow the SMILES beside them.",
  "data": [
    {"compound": "OFS-SWCRC", "values": [
      {"measurement": "reactivity with glutathione (GSH)", "setting": "[1]", "result": "reacted with GSH over 3 hours"}
    ]},
    {"compound": "CC[C@H](C)[C@H](NC(=O)[C@H](CC(C)C)NC(=O)[C@H](CCCNC(=N)N)NC(C)=O)C(=O)N[C@@H](CCC(=O)O)C(=O)N[C@@H](CC(=O)O)C(=O)N[C@H](C(=O)N[C@H]1CSSC[C@@H](C(=O)N[C@@H](CC(C)C)C(=O)N[C@@H](Cc2c[nH]c3ccccc23)C(=O)N[C@@H](CCC(=O)O)C(=O)N[C@@H](CC(=O)O)C(=O)N[C@@H](CC(=O)O)C(N)=O)NC(=O)CNC(=O)[C@H](Cc2c[nH]c3ccccc23)NC(=O)[C@H](CCCNC(=N)N)NC(=O)[C@@H]2CCCN2C(=O)[C@H](CC(C)C)NC1=O)[C@@H](C)CC", "note": "[SA-21] (Ac-RLIEDICLPRWGCLWEDD-NH2; disulfide 7-13)", "values": [
      {"measurement": "level at 2 min", "setting": "[2]; [6]", "result": 40000, "unit": "ng/mL"},
      {"measurement": "level at 1 h", "setting": "[2]; [6]", "result": 30000, "unit": "ng/mL"},
      {"measurement": "plasma concentration in 3 h study, in words", "setting": "[2]; mice, tail vein, 2, 60, 180 min", "result": "indistinguishable"},
      {"measurement": "pKd", "setting": "HSA [3]; Discussion, reference not given, read-out: affinity of benchmark", "result": 6.22},
      {"measurement": "pKd", "setting": "HSA [3]; read-out: binding affinity to HSA", "result": "~6.30"}
    ]},
    {"compound": "NC(=O)N1c2ccccc2C=Cc2ccccc21", "note": "[carbamazepine]", "values": [
      {"measurement": "influence on binding of 14c to HSA", "setting": "HSA [4]", "result": "none of these drugs influenced the binding of 14c"}
    ]},
    {"compound": "FITC-EYEYKpalmESE-NH2", "values": [
      {"measurement": "pKd", "setting": "[5]", "result": 7.41}
    ]}
  ]
}
